Measured values published in PubChem BioAssay AID248 (DTP/NCI, 2004).
Values joined by “and” are separate entries in the source; they are usually repeats but may differ in a detail not shown here. Identical values can stand only once. Inconclusive results and toxic doses are left out. Rule as the data show it: active = T/C of 150% or more; inactive = T/C below 125%.

Tested on: L1210 leukemia ip in BDF1 mice, survival T/C
Assay: NCI In Vivo Anticancer Drug Screen. Data for tumor model L1210 Leukemia (intraperitoneal) in B6D2F1 (BDF1) mice
Conditions: endpoint: mean survival time, higher = longer survival
Method in brief: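 Mice bearing the transplanted tumor received compound or vehicle. Survival of the treated group was divided by that of the vehicle-treated control group to give the ratio.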

[1] = dose: 100.0 mg/kg/injection, schedule: Q01DX001 (ip), vehicle: Klucel (hydroxypropylcellulose) (HPC)
[2] = dose: 100.0 mg/kg/injection, schedule: Q01DX009 (ip), vehicle: Klucel (hydroxypropylcellulose) (HPC)
[3] = dose: 200.0 mg/kg/injection, schedule: Q01DX001 (ip), vehicle: Klucel (hydroxypropylcellulose) (HPC)
[4] = dose: 200.0 mg/kg/injection, schedule: Q01DX009 (ip), vehicle: Klucel (hydroxypropylcellulose) (HPC)
[5] = dose: 400.0 mg/kg/injection, schedule: Q01DX001 (ip), vehicle: Klucel (hydroxypropylcellulose) (HPC)
[6] = dose: 100.0 mg/kg/injection, schedule: Q04DX003 (ip), vehicle: Klucel (hydroxypropylcellulose) (HPC)
[7] = dose: 200.0 mg/kg/injection, schedule: Q04DX003 (ip), vehicle: Klucel (hydroxypropylcellulose) (HPC)
[8] = dose: 400.0 mg/kg/injection, schedule: Q01DX009 (ip), vehicle: Klucel (hydroxypropylcellulose) (HPC)
[9] = dose: 400.0 mg/kg/injection, schedule: Q04DX003 (ip), vehicle: Klucel (hydroxypropylcellulose) (HPC)
[10] = dose: 100.0 mg/kg/injection, schedule: Q04DX003 (ip), vehicle: saline with Tween-80
[11] = dose: 200.0 mg/kg/injection, schedule: Q04DX003 (ip), vehicle: saline with Tween-80
[12] = dose: 100.0 mg/kg/injection, schedule: Q04DX002 (ip), vehicle: Klucel (hydroxypropylcellulose) (HPC)
[13] = dose: 200.0 mg/kg/injection, schedule: Q04DX002 (ip), vehicle: Klucel (hydroxypropylcellulose) (HPC)
[14] = dose: 400.0 mg/kg/injection, schedule: Q04DX002 (ip), vehicle: Klucel (hydroxypropylcellulose) (HPC)
[15] = dose: 100.0 mg/kg/injection, schedule: Q01DX001 (ip), vehicle: saline
[16] = dose: 200.0 mg/kg/injection, schedule: Q01DX001 (ip), vehicle: saline
[17] = dose: 100.0 mg/kg/injection, schedule: Q04DX003 (ip), vehicle: other
[18] = dose: 200.0 mg/kg/injection, schedule: Q04DX003 (ip), vehicle: other

Measured: T/C

NC(C(=O)O)c1ccccc1Cl (centres undefined)
inactive: dose: 50.0 mg/kg/injection, schedule: Q01DX009 (ip), vehicle: Klucel (hydroxypropylcellulose) (HPC) 95 % of control | [1] 92 % of control | [2] 101 % of control | [3] 102 % of control | [4] 107 % of control | [5] 91 % of control

NC(=O)c1cc(Cl)cc(Cl)c1N
inactive: [1] 100 % of control | [3] 107 % of control | [5] 111 % of control

CCN(CC)c1ccc(N)cc1
inactive: dose: 6.25 mg/kg/injection, schedule: Q01DX009 (ip), vehicle: saline with Tween-80 112 % of control | dose: 12.5 mg/kg/injection, schedule: Q01DX009 (ip), vehicle: saline with Tween-80 102 % of control | dose: 12.5 mg/kg/injection, schedule: Q04DX003 (ip), vehicle: saline with Tween-80 100 % of control | dose: 25.0 mg/kg/injection, schedule: Q01DX009 (ip), vehicle: saline with Tween-80 104 % of control | dose: 25.0 mg/kg/injection, schedule: Q04DX003 (ip), vehicle: saline with Tween-80 94 % of control

O=C(c1ccccc1)C1C(c2ccccc2)N1CCl (centres undefined)
inactive: [2] 98 % of control | [6] 92 % of control | [4] 94 % of control | [7] 105 % of control | [8] 100 % of control | [9] 107 % of control

CCCCCCCCCCCCCCCCCCCOc1ccc(OCCCCCCCC)cc1
inactive: [10] 94 % of control | [11] 92 % of control | dose: 400.0 mg/kg/injection, schedule: Q04DX003 (ip), vehicle: saline with Tween-80 94 % of control

O=C(Nc1ccc(F)cc1)c1ccc([N+](=O)[O-])cc1
inactive: [12] 95 % of control | [13] 95 % of control | [14] 92 % of control

COc1cc2c(cc1OC)C1CCC3=C(O)CCC3=[N+]1CC2 (centres undefined)
inactive: [12] 101 % of control | [13] 86 % of control

Cc1ccc(S(=O)(=O)OCC23CCC2(COS(=O)(=O)c2ccc(C)cc2)COC3)cc1 (centres undefined)
inactive: dose: 75.0 mg/kg/injection, schedule: Q01DX001 (ip), vehicle: saline 96 % of control | dose: 75.0 mg/kg/injection, schedule: Q01DX009 (ip), vehicle: saline 94 % of control | dose: 150.0 mg/kg/injection, schedule: Q01DX001 (ip), vehicle: saline 93 % of control | dose: 300.0 mg/kg/injection, schedule: Q01DX001 (ip), vehicle: saline 95 % of control | dose: 300.0 mg/kg/injection, schedule: Q01DX009 (ip), vehicle: saline 89 % of control

CC1NC(=S)NC(=O)C1CCSC(=N)N (centres undefined)
inactive: [15] 104 % of control | [16] 98 % of control

COC(=O)C(Br)C(Br)c1ccc(OC)c(OC)c1 (centres undefined)
inactive: [6] 96 % of control | [7] 101 % of control | [9] 96 % of control

CC(Cc1ccccc1)NCCn1cnc2c1c(=O)n(C)c(=O)n2C (centres undefined)
inactive: dose: 6.25 mg/kg/injection, schedule: Q01DX009 (ip), vehicle: saline 94 % of control | dose: 12.5 mg/kg/injection, schedule: Q01DX009 (ip), vehicle: saline 98 % of control | dose: 25.0 mg/kg/injection, schedule: Q01DX009 (ip), vehicle: saline 94 % of control | dose: 50.0 mg/kg/injection, schedule: Q01DX009 (ip), vehicle: saline 102 % of control

COc1cc(CC2c3cc(OC)c(OC)cc3CCN2C)c(Oc2cc3c(cc2OC)-c2c(OC)c(OC)c(OC)c4c2C(C3)N(C)CC4)cc1OC (centres undefined)
inactive: [10] 97 % of control | [11] 97 % of control

CCc1ccc(N=Nc2ccc(CC)cc2)cc1
inactive: dose: 100.0 mg/kg/injection, schedule: Q01DX001 (ip), vehicle: carboxymethylcellulose (CMC) 98 % of control | dose: 200.0 mg/kg/injection, schedule: Q01DX001 (ip), vehicle: carboxymethylcellulose (CMC) 106 % of control | dose: 400.0 mg/kg/injection, schedule: Q01DX001 (ip), vehicle: carboxymethylcellulose (CMC) 101 % of control

CC1CCN(S(=O)(=O)c2ccc(Cl)cc2)CC1
inactive: [2] 102 % of control | [4] 97 % of control | [8] 97 % of control

CCOC(=O)N(c1ccccc1)c1ccccc1
inactive: [12] 106 % of control | [13] 106 % of control | [14] 98 % of control

O=CNNC(=O)c1cccc([N+](=O)[O-])c1
inactive: dose: 100.0 mg/kg/injection, schedule: Q01DX001 (ip), vehicle: other 95 % of control | [17] 97 % of control | dose: 200.0 mg/kg/injection, schedule: Q01DX001 (ip), vehicle: other 101 % of control | [18] 95 % of control | dose: 400.0 mg/kg/injection, schedule: Q01DX001 (ip), vehicle: other 92 % of control

N#CC1(C(N)=O)OC12CCS(=O)(=O)c1ccccc12 (centres undefined)
inactive: [15] 87 % of control | [16] 94 % of control

Oc1ccc(/C=N/Nc2nnc(N/N=C/c3ccc(O)c(O)c3)c3ccccc23)cc1O
inactive: dose: 50.0 mg/kg/injection, schedule: Q01DX001 (ip), vehicle: saline 97 % of control | [15] 92 % of control | [16] 97 % of control | dose: 400.0 mg/kg/injection, schedule: Q01DX001 (ip), vehicle: saline 97 % of control

Cc1cc(C(=O)O)c(C(C)C)cc1C(=O)O
inactive: [17] 101 % of control | [18] 98 % of control | dose: 400.0 mg/kg/injection, schedule: Q04DX003 (ip), vehicle: other 92 % of control

O=[N+]([O-])c1cc(S(=O)(=O)C(F)F)ccc1Cl
inactive: dose: 25.0 mg/kg/injection, schedule: Q04DX003 (ip), vehicle: gum acacia 97 % of control | dose: 50.0 mg/kg/injection, schedule: Q01DX009 (ip), vehicle: gum acacia 93 % of control | dose: 50.0 mg/kg/injection, schedule: Q04DX003 (ip), vehicle: gum acacia 97 % of control | dose: 100.0 mg/kg/injection, schedule: Q01DX009 (ip), vehicle: gum acacia 88 % of control | dose: 100.0 mg/kg/injection, schedule: Q04DX003 (ip), vehicle: gum acacia 99 % of control and 102 % of control

Cc1cccc(C(C)(C)C#N)c1
inactive: dose: 50.0 mg/kg/injection, schedule: Q01DX009 (ip), vehicle: saline with Tween-80 92 % of control | dose: 100.0 mg/kg/injection, schedule: Q01DX009 (ip), vehicle: saline with Tween-80 101 % of control | dose: 200.0 mg/kg/injection, schedule: Q01DX009 (ip), vehicle: saline with Tween-80 90 % of control

O=CC(C(O)C(O)C(O)CO)N1CCN(C(C=O)C(O)C(O)C(O)CO)CC1 (centres undefined)
inactive: dose: 50.0 mg/kg/injection, schedule: Q04DX002 (ip), vehicle: saline 95 % of control | dose: 100.0 mg/kg/injection, schedule: Q04DX002 (ip), vehicle: saline 107 % of control | dose: 200.0 mg/kg/injection, schedule: Q04DX002 (ip), vehicle: saline 107 % of control

CCOC(=O)C(CCN(C)Cc1ccccc1)C(=O)OCC
inactive: [2] 97 % of control | [4] 100 % of control | [8] 106 % of control

COc1cccc(NC(=S)NCCO)c1
inactive: [6] 103 % of control | [7] 110 % of control | [9] 110 % of control
